Test systems include CAKI-1 renal; HCC-2998 colon; HL-60(TB) leukemia; HOP-92 NSCLC; K-562 leukemia; KM12 colon; SF-268 CNS; SK-OV-3 ovarian; TK-10 renal; RXF 393 renal.
What all share (assay): NCI-60 cell line screen, 48 h

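Step 1: Grow cells in 96-well plates. Step 2: Expose to compound for 48 hours at 5 concentrations. Step 3: Interpolate endpoints linearly; if unreached, use highest concentration. GI50 = concentration required for 50% inhibition of growth. TGI: concentration producing complete growth inhibition.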 Where only a bound is given, the exact number is not on record here.

Turning to `CCOC(=O)c1cc2c(cc1Cl)SC(N(c1ccc(OC)cc1)S(=O)(=O)c1ccc(Cl)cc1)=NS2(=O)=O`, the GI50 is 35.8 µM with CAKI-1 renal; greater than 100 µM in the test with HCC-2998 colon; 36.6 µM in the test on HL-60(TB) leukemia; 19100 nM with HOP-92 NSCLC; 38.6 µM in the test with K-562 leukemia; 46.7 µM with KM12 colon. The GI50 in the test on SF-268 CNS is 23.5 µM; in the test with SK-OV-3 ovarian, greater than 100 µM; in the test with TK-10 renal, 38.4 µM. The TGI is greater than 100 µM in the test on CAKI-1 renal; greater than 100 µM in the test with HCC-2998 colon; greater than 100 µM with HL-60(TB) leukemia; 38.6 µM in the test on HOP-92 NSCLC; greater than 100 µM with K-562 leukemia; greater than 100 µM in the test with KM12 colon. In addition, the TGI in the test with SF-268 CNS was 67.6 µM; with SK-OV-3 ovarian it was greater than 100 µM; in the test on TK-10 renal, greater than 100 µM.

With `COC(=O)C(C(=O)OC)C1CCCC(=O)C1` (stereo not given), the TGI with HCC-2998 colon, in the test on HL-60(TB) leukemia, with HOP-92 NSCLC, in the test with K-562 leukemia, in the test on KM12 colon and in the test with RXF 393 renal was greater than 100 µM throughout. The TGI with SF-268 CNS, in the test on SK-OV-3 ovarian and with TK-10 renal was greater than 100 µM throughout.

Regarding `C/C(CC(=O)Nc1ccc(C)c(C)c1)=N\NC(N)=O`, the TGI with HCC-2998 colon, with HL-60(TB) leukemia, in the test on HOP-92 NSCLC, in the test on K-562 leukemia, in the test on KM12 colon and in the test with RXF 393 renal was greater than 100 µM throughout. In addition, the TGI in the test on SF-268 CNS, in the test with SK-OV-3 ovarian and with TK-10 renal was greater than 100 µM throughout.

As to `CC(=O)C1C(c2ccc(N(C)C)cc2)c2cc3c(cc2OC1(C)O)OCO3` (stereo not given), the TGI with CAKI-1 renal was 87.8 µM; in the test with HL-60(TB) leukemia, 58.2 µM; with HOP-92 NSCLC, 55.4 µM; with K-562 leukemia, 63.5 µM; with RXF 393 renal, greater than 100 µM; in the test with SK-OV-3 ovarian it was greater than 100 µM. In the test on TK-10 renal, the TGI was greater than 100 µM.

Take `COc1ccc(-c2cc(=O)c3cc(OC)ccc3[nH]2)cc1`: the TGI with HCC-2998 colon, in the test with HL-60(TB) leukemia, in the test on HOP-92 NSCLC, with K-562 leukemia, with KM12 colon and in the test with RXF 393 renal was greater than 100 µM in each case. The TGI with SF-268 CNS, in the test with SK-OV-3 ovarian and in the test on TK-10 renal was greater than 100 µM in each case.

Regarding `Cc1cc(N2CCOCC2)nc(N[C@@H]2CCC[C@H](Nc3ccnc4cc(Cl)ccc34)C2)n1`, the GI50 in the test on HCC-2998 colon is 2.05 µM; in the test with HL-60(TB) leukemia it was 1.98 µM; in the test on HOP-92 NSCLC it was 1440 nM; with K-562 leukemia, 1.21 µM; with KM12 colon, 3.06 µM; in the test with RXF 393 renal, 1.44 µM. Further, the figures for the GI50 in the test on SF-268 CNS, in the test with SK-OV-3 ovarian and with TK-10 renal were 1.59 µM, 3.44 µM and 2.15 µM, respectively. In addition, the TGI with HCC-2998 colon came to 4.55 µM; in the test with HL-60(TB) leukemia it was 3.87 µM; with HOP-92 NSCLC, 3.08 µM; in the test with K-562 leukemia it was 3.69 µM; in the test with KM12 colon, 10.8 µM; with RXF 393 renal it was 3.11 µM. The TGI with SF-268 CNS came out at 4.44 µM; with SK-OV-3 ovarian it was 11.9 µM; with TK-10 renal, 4.09 µM.

For the molecule `CC(C)(C)c1cc(-n2c(-c3ccc(Cl)cc3)nc3cc(C(=O)Nc4ccc(Cl)cc4)ccc32)n[nH]1`, the GI50 in the test with HL-60(TB) leukemia was 3.18 µM; in the test on HOP-92 NSCLC, 1650 nM; in the test with KM12 colon it was 2.76 µM; in the test with RXF 393 renal, 8.57 µM; in the test on SF-268 CNS, 9.03 µM; with SK-OV-3 ovarian, 21.6 µM. For the same molecule, the GI50 in the test on TK-10 renal is 3.66 µM. In addition, the TGI with HL-60(TB) leukemia was greater than 100 µM; in the test on HOP-92 NSCLC, 6.51 µM; in the test on KM12 colon, greater than 100 µM; in the test on RXF 393 renal it was 63.6 µM; with SF-268 CNS, greater than 100 µM; in the test on SK-OV-3 ovarian, 66.4 µM. Further, in the test on TK-10 renal, the TGI was greater than 100 µM.

For the molecule `N=c1ccn(O)cc1/C=C1/C(=O)Nc2ccccc21`, the GI50 is greater than 100 µM with CAKI-1 renal; greater than 100 µM in the test on HCC-2998 colon; greater than 100 µM in the test with HL-60(TB) leukemia; greater than 100000 nM in the test on HOP-92 NSCLC; greater than 100 µM with K-562 leukemia; greater than 100 µM with KM12 colon. The GI50 with SF-268 CNS, with SK-OV-3 ovarian and in the test with TK-10 renal was greater than 100 µM each time. For the same molecule, the TGI with CAKI-1 renal, in the test on HCC-2998 colon, in the test on HL-60(TB) leukemia, in the test with HOP-92 NSCLC, in the test on K-562 leukemia and with KM12 colon was greater than 100 µM in each case. Also, the TGI with SF-268 CNS, with SK-OV-3 ovarian and in the test with TK-10 renal was greater than 100 µM throughout.

Take `CCOC(=O)N1CCC(=O)C(CNC23CC4CC(CC(C4)C2)C3)C1` (stereo not given): the TGI was greater than 100 µM in the test on HL-60(TB) leukemia; 41 µM in the test on HOP-92 NSCLC; 31.2 µM in the test on K-562 leukemia; greater than 100 µM in the test on KM12 colon; 33.2 µM in the test on RXF 393 renal; greater than 100 µM in the test on SF-268 CNS. Besides, the TGI in the test with SK-OV-3 ovarian and in the test on TK-10 renal was greater than 100 µM throughout.

The values above are taken from PubChem BioAssay (NCI).
